This is an account of results in paper PMC2707616, “Platensimycin Activity against Mycobacterial β-Ketoacyl-ACP Synthases” (PLoS ONE, 2009).

Converted amounts (≈) assume the structure as drawn. Like-named read-outs stand apart in the source and are kept apart here.

For series [1], the system named is KasA. As to conditions: cited from earlier work.
In series [2] the test system is KasB. The following applies: KasB ref 25; cited from earlier work.
The test system of series [3] is S. aureus FabH. Details: method as in PMID 17456595. As to conditions: S. aureus FabH ref 2; cited from earlier work.
Series [4] has as its system M. tuberculosis CDC1551. The series is described as follows: microbe, parasite or virus in culture. In kind it is cell-based. The following applies: Mycobacterium tuberculosis; M. tuberculosis CDC1551, solid medium.
The subject of series [5] is M. tuberculosis H37Rv. Nature of the series: microbe, parasite or virus in culture. In kind it is cell-based. The following applies: Mycobacterium tuberculosis, solid medium.
For series [6], the system named is M. smegmatis mc^2155. Nature of the series: MIC99 by Alamar Blue testing, liquid medium. Type of series: cell-based, Mycobacterium smegmatis. As to conditions: Mycolicibacterium smegmatis.
The subject of series [7] is M. smegmatis pVV16. The series is described as follows: MIC99 by Alamar Blue testing, vector control strain. Type of series: cell-based, Mycobacterium smegmatis. The following applies: Mycolicibacterium smegmatis.
Series [8] relates to M. smegmatis pVV16- KasA. Nature of the series: microbe, parasite or virus in culture. In kind it is cell-based, Mycobacterium smegmatis.
The subject of series [9] is M. smegmatis pVV16- KasB. Nature of the series: microbe, parasite or virus in culture. Type of series: cell-based, Mycobacterium smegmatis.
Series [10] has as its system M. smegmatis pVV16- KasAB. Nature of the series: microbe, parasite or virus in culture. As to conditions: Mycolicibacterium smegmatis, PVV16KASAB. In kind it is cell-based, Mycobacterium smegmatis.
Series [11] deals with M. smegmatis pVV16- FabH. The series is described as follows: microbe, parasite or virus in culture. Type of series: cell-based, Mycobacterium smegmatis. As to conditions: Mycolicibacterium smegmatis, PVV16FABH.
Series [12] relates to M. bovis BCG. The series is described as follows: microbe, parasite or virus in culture. In kind it is cell-based.
In series [13] the test system is M. bovis BCG pVV16. The series is described as follows: microbe, parasite or virus in culture. In kind it is cell-based. The following applies: Mycobacterium tuberculosis variant bovis BCG.
Series [14] relates to M. bovis BCG pVV16- KasA. Nature of the series: microbe, parasite or virus in culture. Type of series: cell-based. The following applies: Mycobacterium tuberculosis variant bovis BCG.
Series [15] deals with M. bovis BCG pVV16- KasB. Nature of the series: microbe, parasite or virus in culture. As to conditions: Mycobacterium tuberculosis variant bovis BCG. In kind it is cell-based.
The subject of series [16] is M. bovis BCGΔ KasB. Type of series: cell-based, Mycobacterium bovis BCG.
The target of series [17] is T1, Mt-KasA (Mycobacterium tuberculosis, UniProt P9WQD9).
T1 construct: made in house
T1 sequence (P9WQD9 whole entry): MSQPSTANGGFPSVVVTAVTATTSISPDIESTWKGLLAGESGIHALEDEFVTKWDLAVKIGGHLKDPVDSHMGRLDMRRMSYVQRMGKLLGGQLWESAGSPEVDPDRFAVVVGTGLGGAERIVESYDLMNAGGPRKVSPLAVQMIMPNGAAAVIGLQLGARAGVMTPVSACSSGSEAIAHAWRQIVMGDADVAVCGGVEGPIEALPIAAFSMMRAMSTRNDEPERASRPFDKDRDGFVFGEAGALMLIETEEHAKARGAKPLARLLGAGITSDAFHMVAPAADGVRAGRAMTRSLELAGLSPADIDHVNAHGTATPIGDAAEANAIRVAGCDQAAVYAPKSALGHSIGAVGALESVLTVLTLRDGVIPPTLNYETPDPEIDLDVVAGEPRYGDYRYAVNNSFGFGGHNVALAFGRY
The series is described as follows: biochemical.

Series [18] deals with T2, Mt-KasB (Mycobacterium tuberculosis, UniProt P9WQD7).
T2 construct: made in house
T2 sequence (P9WQD7 whole entry): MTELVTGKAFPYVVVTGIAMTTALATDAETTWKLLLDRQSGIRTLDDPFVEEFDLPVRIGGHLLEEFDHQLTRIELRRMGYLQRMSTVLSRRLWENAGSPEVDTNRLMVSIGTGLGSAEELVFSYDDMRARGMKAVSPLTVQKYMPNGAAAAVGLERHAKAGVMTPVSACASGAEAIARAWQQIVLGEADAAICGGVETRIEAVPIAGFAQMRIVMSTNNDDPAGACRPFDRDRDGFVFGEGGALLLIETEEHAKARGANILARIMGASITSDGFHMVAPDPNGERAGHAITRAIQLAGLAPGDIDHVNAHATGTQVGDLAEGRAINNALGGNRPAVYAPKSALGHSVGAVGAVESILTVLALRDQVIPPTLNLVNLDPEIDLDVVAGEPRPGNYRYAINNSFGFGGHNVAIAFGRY
The series is described as follows: biochemical.

Series [19] addresses T3, Mt-FabH (Mycobacterium tuberculosis, UniProt P9WNG3).
T3 construct: made in house
The series is described as follows: biochemical.

The subject of series [20] is Cg-FAS-I. The series is described as follows: FAS-I activity in crude cell free extracts. Type of series: biochemical, C. glutamicum. The following applies: crude cell free extract, standard error in brackets. Here is the method: FAS-I extracts from M. smegmatis and C. glutamicum were prepared as described previously. FAS-I experiments were conducted as described using the 40–80% ammonium sulfate fraction. Briefly, platensimycin was titred (0.1–150 µg/ml) into the standard reaction as follows: 100 mM potassium phosphate pH 7.0, 5 mM EDTA, 5 mM dithiothreitol, 300 µM acetyl-CoA, 100 µM NADPH, 100 µM NADH, 1 µM flavin mononucleotide, 500 µM α-cyclodextrin, 20 µM malonyl-CoA, 100,000 cpm of [2-^14C] malonyl-CoA, and 100 µl of the cytosolic enzyme preparation (1 mg of protein) in a total volume of 500 µl. Reactions were performed in triplicate at 37°C for 1 h and terminated by the addition of 500 µl of 20% potassium hydroxide in 50% methanol at 100°C for 30 min. Following acidification with 300 µl of 6 M HCl, the resultant [^14C]-labelled fatty acids were extracted three times with petroleum ether. The organic extracts were pooled, washed once with an equal volume of water, and dried in a scintillation vial prior to scintillation counting using 5 ml of EcoScintA (National Diagnostics, Hull, U.K.).

Series [21] has as its system M. smegmatis. The series is described as follows: Growth and viable count (CFU) of cultures over 72 h, revival after washing. Type of series: cell-based, Mycobacterium smegmatis.
The test system of series [22] is M. smegmatis mc^2155. In kind it is cell-based, Mycobacterium smegmatis.
The test system of series [23] is C. glutamicum. The series is described as follows: Growth of cultures. Type of series: cell-based. As to conditions: data not shown.
The test system of series [24] is Candida albicans. Details: method as in PMID 16710421. As to conditions: cited from earlier work.
The subject of series [25] is human FAS-I. Further details: method as in earlier work. The following applies: cited from earlier work.
The subject of series [26] is rat FAS-I. Further details: method as in earlier work. The following applies: cited from earlier work.
Series [27] deals with HeLa. The following applies: mammalian cell toxicity ref 3; cited from earlier work.

T3 sequence (P9WNG3 whole entry): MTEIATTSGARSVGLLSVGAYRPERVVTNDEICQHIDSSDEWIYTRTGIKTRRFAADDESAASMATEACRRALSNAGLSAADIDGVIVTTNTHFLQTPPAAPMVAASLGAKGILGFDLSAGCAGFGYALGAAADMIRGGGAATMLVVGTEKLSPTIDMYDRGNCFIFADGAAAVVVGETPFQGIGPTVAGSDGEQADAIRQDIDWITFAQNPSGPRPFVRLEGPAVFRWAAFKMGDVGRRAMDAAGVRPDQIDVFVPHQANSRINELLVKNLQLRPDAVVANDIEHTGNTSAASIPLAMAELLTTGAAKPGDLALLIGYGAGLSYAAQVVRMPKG

As for `C=C/C(C)=C/[C@@]1(C)SC(=O)C(C)=C1O` [TLM, thiolactomycin], the IC50 in [1] is 20 µM; in [2], 90 µM.

Take `C=C1C[C@@]23C=CC(=O)[C@@](C)(CCC(=O)Nc4c(O)ccc(C(=O)O)c4O)[C@@H]2C[C@@H]1CC3` [platencin]: the IC50 in series [3] was 9.17 µM.

Turning to `CC12C[C@@]34C=CC(=O)[C@@](C)(CCC(=O)Nc5c(O)ccc(C(=O)O)c5O)C3[C@H](CC1C4)O2` (stereo partly drawn) [platensimycin], the MIC99 in [4] amounted to 12 µg/mL (≈ 27.2 µM); in series [5] it was 12 µg/mL (≈ 27.2 µM); in series [6], 14 µg/mL (≈ 31.7 µM); in series [7], 14 µg/mL (≈ 31.7 µM); in series [8] (Mycolicibacterium smegmatis, PVV16KASA, M. smegmatis pVV16- KasA) it was 30 µg/mL (≈ 68 µM); in series [9] (Mycolicibacterium smegmatis, PVV16KASB, M. smegmatis pVV16- KasB) it was 124 µg/mL (≈ 281 µM). Also, the MIC99 in [10] was 126 µg/mL (≈ 285 µM); in series [11], 16 µg/mL (≈ 36.2 µM); in series [12] it was greater than 128 µg/mL; in series [12] (Mycobacterium tuberculosis variant bovis BCG, read-out: MIC99), greater than 128 µg/mL; in [13] it was greater than 128 µg/mL; in series [14] it was greater than 128 µg/mL. Moreover, the MIC99 is greater than 128 µg/mL in series [15] and 61 µg/mL (≈ 138 µM) in series [16]. In addition, in [8] (MIC from 14 to 30 µg/ml), the “increase in resistance (MIC) on Mt-KasA overexpression” value is listed as 2 fold. In [9] (MIC to 124 µg/ml), the “increase in the MIC on Mt-KasB overexpression” value was 9 fold. For the same compound, the IC50 in series [17] is 4.53 µM; in [17] (standard error in brackets) it was 4.53 µM; in [18] it was 9.51 µM; in series [18] (standard error in brackets), 9.51 µM; in series [19], greater than 340 µM; in series [20] it was 6.5 (0.2) µg/ml. For the same compound, the IC50 in [3] is 67 µM. Also, the “decrease in CFU” value in series [21] (14 µg/ml platensimycin, 72 hours, LB broth) was 2 log. Also, in series [21] (cells exposed for 72 hours), the “nature of the antibiotic effect (revival after washing and re-inoculation)” value is recorded as “bacteristatic”. For the same compound, the “Biosynthesis of fatty acids and α- and epoxy-mycolic acids” value in series [22] (20–40 µg/ml, [14C]acetate labelling) is recorded as “significantly inhibited”. In addition, the “α′-MAMEs level” value in series [22] (lower concentrations, 10–20 µg/ml) is given as “accumulation”. For the same compound, in [22] (platensimycin-treated cultures, 20-40 µg/ml), the “synthesis of mycolate containing lipids GMM and TDM” value is recorded as “reduced”. Further, in [23], the “growth of cultures of C. glutamicum” value is listed as “failed to inhibit growth”. The “antifungal activity against Candida albicans” value in series [24] is greater than 64 µg/mL. The “human FAS-I inhibition in vitro” value in [25] is reported as “inhibited”. Moreover, the “rat FAS-I inhibition in vitro” value in series [26] is reported as “inhibited”. Further, the “IC50 of HeLa MTT” value in [27] is greater than 1000 µg/mL.
